These results are taken from patent publication US20010041708A1, “Compositions for preventing cellulite in mammalian skin” (Zen-Bio, Inc., priority 2000, published 2001).

One test relates to aP2. Put plainly: aP2 protein expression in 3T3-L1 preadipocytes. Format: cell-based, murine.
For test [1], the system named is 3T3-L1 adipocyte cell line. Put plainly: Lipolysis of triglycerides (glycerol release) in 3T3-L1 adipocyte cell line. Format: cell-based, rodent.
The test system of test [2] is stromal vascular (SV) cells from human adipose tissue. Put plainly: De novo lipogenesis (14C-glucose incorporation into cellular lipid). The following applies: Exp. 5a. The class given is cell-based. How it is done:
Experiments 5a and 5b were designed to determine if the trans-10, cis-12 CLA-mediated reduction in TG content was due to decreased lipogenesis and/or increased lipolysis. In Experiment 5a (lipogenesis), SV cells were seeded at a density of 3×10^4/cm^2 and continuously treated with increasing concentrations (3, 10, or 30 uM) of either linoleic acid, cis-9, tran-11 CLA, or trans-10, cis-12 CLA. A set of control cultures received vehicle (BSA) plus TZD. All cultures received differentiation media (days 1-3), adipocyte media (days 4-9), and low-glucose (˜5 mM) adipocyte media (days 10-12) prior to measuring de novo lipogenesis. On day 12, ^14C-labeled glucose incorporation into the lipid fraction of the cultures was measured for 2 h and, following lipid extraction, the radioactivity in the lipid fraction was determined by scintillation counting. Time course data (not shown) indicated a linear increase in radiolabeled glucose incorporation into lipid over 2 h.
Incorporation of ^14C-glucose into cellular lipid was determined on day 12 of differentiation in cultures chronically treated with fatty acids or vehicle. Following the addition of fatty acids and low glucose (˜5 mM) medium to the cultures on day 12, 1.0 μCi [U-^14C]-glucose ([U-^14C]-D-glucose; SA ˜250 mCi/mmol, ICN, Costa Mesa, Calif.)/mL medium was added to the cultures for 2 h. Our time course study (data not shown) indicated a linear increase in radiolabeled glucose incorporation into lipid over a 2 h period. After 2 h, media containing unincorporated ^14C-glucose was immediately removed and the cultures were washed with 1 mL HBSS to remove unincorporated ^14C-glucose. An additional 1 mL of HBSS was added and, after vigorous tritaration, cells were transferred to glass vials. Five milliliters of a chloroform:methanol (2:1) solution was added to each vial and they were vortexed for 1 min. All samples were then centrifuged for 5 min at 1000×g to further separate the hydrophobic and hydrophilic phases. The lower hydrophobic phase was removed from the tubes and dried under nitrogen at 40° C. Five milliliters of scintillation cocktail (Scinti Verse, Fisher Scientific, Norcross, Ga.) was added to each sample, and the ^14C content was determined by liquid scintillation counting on a Beckman LS 6000 Scintillation Counter (Beckman Instruments, Palo Atlo, Calif.). […] The radioactivity in the lipid fraction from these cultures was subtracted from the total counts. Cell numbers were determined from parallel treatment groups in separate culture dishes at the time of radioisotope addition to the medium. Therefore, mean ^14C-glucose incorporation is expressed as cpm/10^6 cells.

Test [3] shares this test system. In words: Triglyceride (TG) content of differentiating primary cultures of SV cells. The class given is cell-based. The following applies: day 11. As for the experimental part:
Abdominal adipose tissue (Exp. 1-5) and thigh adipose tissue (Exp. 5b) were obtained from middle-aged females with body mass indexes <30.0 during liposuction or elective surgery. Subsequently, tissue was minced and enzymatically digested for 45 min in a Krebs-Ringer buffer containing 1 mg/mL collagenase (CLS-1, Worthington Biochemical Corp, Lakewood, N.J.), 15 mg/mL bovine serum albumin (BSA), 5 mM glucose and 100 mM HEPES (pH 7.4). Digestion was carried out at a 5 mL/1 g ratio (digestion solution: tissue mass). The digesta was then filtered through 200- and 60-micron mesh and pelleted at 600×g for 5 min. The SV cells were resuspended in a RBC lysis buffer for 10 min and then filtered and recentrifuged to remove contaminating […]. Cultures of SV cells were grown in proliferation medium containing 90% DME/Ham's F-10 (1:1, v/v), 10% (v/v) fetal bovine serum (FBS), 15 mM HEPES (pH 7.4), 60 U/mL penicillin, 60 U/mL streptomycin, and 25 ug/mL fungizone. Cultures were incubated at 37° C. in a humidified […]:CO2 (90:10%) atmosphere. SV cells were grown to 80% confluency and then cryopreserved in liquid nitrogen in aliquots (2×10^6 cells/mL).
Cryopreserved aliquots were subsequently thawed, seeded in T-150 flasks (e.g., 1 vial per 2 T-150 flasks), and grown in proliferation media until 80% confluent. At this time the cells were removed via trypsinization, seeded (3×10^4/cm^2, except for Exp. 1) in 24-well or 96-well (Exp. 5b) Falcon dishes, and allowed to attach for 24 h in proliferation medium. Following attachment, cultures were grown in differentiation medium for the next 3 d which contained DME/Ham's F-10 (1:1,v/v), 15 mM HEPES (pH 7.4), 33 uM biotin, 17 uM pantothenate, 100 nM human insulin, 1 uM dexamethasone (DEX), 60 U/mL penicillin, 60 U/mL streptomycin, 25 ug/mL fungizone, 0.25 mM isobutylmethylxanthine (IBMX), and TZD (Exp. 1 & 2=BRL 49653; Exp. 3-5=Zen Bio's proprietary reagent). Thereafter, cultures were exposed to adipocyte medium consisting of 90% DME/Ham's F-10 (1:1,v/v), 15 mM HEPES (pH 7.4), 3% FBS (v/v), 33 uM biotin, 17 uM pantothenate, 100 nM human insulin, 1 uM DEX, 60 U/mL penicillin, 60 U/mL streptomycin, and 25 ug/mL fungizone. Adipocyte media was replaced every 3 d. […] After 18 day in culture, the majority of the cells contained visual lipid droplets.
Experiment 1 was designed to determine optimal culturing conditions during differentiation of primary cultures of SV cells isolated from human adipose tissue. Specifically, the experiment was designed to determine how seeding density and thiazolidinedione (TZD; PPARγ-agonist BRL 49653) concentration influenced TG content (ug/10^6cells). SV cells were seeded at increasing densities (2-, 3-, or 4×10^4/cm^2) in differentiation media containing 0, 1, or 10 uM TZD (BRL 49653) in this 3×3 factorial design. All cultures received the same adipocyte media after 3 d of differentiation. The cultures were harvested on day 11-12 of differentiation and TG content and cell number were measured. Another set of cultures was stained with Oil Red O and counterstained with Mayer's hematoxylin to assess cellular differentiation potential (n=3 per treatment combination).
In Experiment 2 the impact of linoleic acid and the trans-10, cis-12 isomer of CLA on TG accumulation in these cells was examined. SV cells were seeded at a density of 3×10^4/cm^2 and continuously treated with either 10 uM linoleic acid, 100 uM linoleic acid, 10 uM trans-10, cis-12 CLA, or 100 uM trans-10, cis-12 CLA, and grown under our normal differentiation protocol. One set of control cultures contained only vehicle (BSA) and another contained vehicle plus TZD (BRL 49653). TG content and cell number were measured on day 11 of differentiation.
The objective of Experiment 3 was to evaluate the dose response of trans-10, cis-12 CLA, cis-9, trans-11 CLA, and linoleic acid on TG content of the cultures. […]

The subject of test [4] is 3T3-L1 preadipocytes. In words: Fatty acid composition of neutral and phospholipid fractions of treated cultures. The class given is cell-based, murine.
Test [5] has as its system 3T3-L1 preadipocytes. In words: TG content of 3T3-L1 preadipocytes. The class given is cell-based, murine.
The subject of the next test is PPARγ2. Put plainly: PPARγ2 protein expression in 3T3-L1 preadipocytes. The class given is cell-based, murine.

Molecules are shown by their SMILES.

In the case of `CCCCC/C=C\C=C\CCCCCCCCC(=O)O` [trans-10, cis-12 CLA, 10-trans, 12-cis conjugated linoleic acid], the aP2 protein expression result is on record as “decreased” with aP2 (after 6 d of treatment) and “did not affect aP2 protein expression” in the test with aP2 (day 2 or 4 of differentiation). Besides, the “Glycerol release by the cells” value in test [1] is on record as “increased glycerol release”. In addition, the “Less 14C-glucose incorporated into cellular lipid compared to TZD treated vehicle controls” value in test [2] (30 uM, day 12, 2 h) is given as 80%. For the same molecule, the “Incorporation of 14C-glucose into cellular lipid per 10^6 cells, dose response” value in test [2] (3, 10, 30 uM, day 12) was “decreased”. Besides, the “Less TG (ug/10^6 cells) than TZD-supplemented vehicle control cultures” value in test [3] (Exp. 2, 10 uM, continuous treatment) stood at 76%. The “TG content vs other treatments / TZD treated vehicle controls” value in test [3] (Exp. 2, 100 uM, continuous treatment) was “not significantly different”. Also, the “TG content vs TZD treated vehicle controls” value in test [3] (Exp. 3, 30 uM) is reported as “not significantly different”. For the same molecule, in test [3] (Exp. 3, 1-10 uM), the “TG content, dose response” value was “decreased”. The “Less TG content compared to TZD treated vehicle controls” value in test [3] (Exp. 4, 10 uM alone) is “approximately 60%”. Also, the “Amount of cis-9 oleic acid” value in the test on 3T3-L1 preadipocytes [4] is “increased”. The “Level of linoleic acid (18:2)” value in the test on 3T3-L1 preadipocytes [4] is recorded as “increased”. Moreover, in the test on 3T3-L1 preadipocytes [4] (50 uM, neutral and polar lipid fractions), the “Amount of cis-11 oleic acid (18:1) compared to BSA controls” value was “lower amounts”. Moreover, the “Amount of palmitoleic acid (16:1) compared to BSA controls” value in the test with 3T3-L1 preadipocytes [4] (50 uM, neutral lipid fraction) is “lower amounts”. In addition, the “Arachidonic acid (AA) in the phospholipid fraction” value in the test with 3T3-L1 preadipocytes [4] (increasing level in culture) is “dose-dependent increase”. The “Incorporation into cellular lipid fractions” value in the test on 3T3-L1 preadipocytes [4] (neutral and phospholipid fractions) is “incorporated into the neutral and phospholipid fractions”. The “TG content, treatment during only the first 3 d of differentiation” value in the test on 3T3-L1 preadipocytes [5] is listed as “not sufficient to lower TG concentrations”. The “Triglyceride content in 3T3-L1 adipocyte cells” value in the test with 3T3-L1 preadipocytes [5] (3T3-L1 adipocyte cell line) was “decreasing triglyceride content”. In the test with 3T3-L1 preadipocytes [5] (3T3-L1 preadipocytes), the TG-lowering effect entry is reported as “responsible for the TG-lowering effects”. Also, the “TG content, treatment during entire period of differentiation” value in the test on 3T3-L1 preadipocytes [5] (vs treatment during last 3 d) is “reduced TG content to a greater extent than treatment during the last 3 d of differentiation”. Further, the PPARγ2 protein expression result in the test on PPARγ2 (after 6 d of treatment) is “decreased”; in the test with PPARγ2 (day 4 of differentiation), “no effect on PPARγ2 protein expression”. The “PPARγ2 protein expression compared to BSA controls” value in the test with PPARγ2 (day 2 of differentiation) is “increased PPARγ2 expression”.
